Where only a bound is given, the exact number is not on record here.

As a reminder, the melting point is the temperature of the solid-liquid transition.

In turn, `Cc1cc(Oc2ccc(-c3ccn(CC4CC4)c(=O)c3C#N)cc2F)cc(C)n1` gave a melting point of 201 °C.

As to `CC(=O)Nc1ccc(COc2cccc(C(N)=O)c2)cc1`, the melting point is 198 to 199 °C.

For the compound `CC(C)C(S)C(=O)NC1(C(=O)NC(Cc2ccc(-c3ccccc3)cc2)C(=O)O)CCOCC1` (centres undefined), the melting point fell in the range of 161 to 163 °C.

`CCCCOc1cc(/C=C(\OCC)C(=O)O)ccc1OCCc1ccc(NC(=O)CC)cc1` registered a melting point of 164 °C.

In the case of `Cc1cc(C(C)(C)C)c(O)c2c1C1CCCCC1C2=O` (centres undefined), the melting point was 77 to 78 °C.

Take `CC(=NO)[C@H]1C[C@H](C(=O)OC(C)(C)C)N(C(=O)CNC(=O)Nc2cccc(C(=O)O)c2)[C@@H]1c1ccccc1` (racemic): the melting point was 180 °C.

On to `COC(=O)C(=Cc1ccc(-c2cccc(N(C)C(=O)Nc3ccccc3)c2)cc1)OC`, for which the melting point was 186 °C.

In turn, `COc1cc(OC)nc(C(CC2CC2)C(=O)NS(C)(=O)=O)n1` (centres undefined) displayed a melting point of 92 to 94 °C.

Regarding `COC(=O)c1cccc(/C=C/c2cccc(OC)c2)c1`, the melting point was 92 to 94 °C.

Compound `Cc1cc(-c2cc(=O)c3cccnc3o2)ccc1O` came in with a melting point of 300 to 302 °C.

Compound `N#CCc1ncccc1[N+](=O)[O-]` had a melting point of 106 to 108 °C.

`CC(=O)Sc1c(F)c(F)c(C=O)c(F)c1F` yielded a melting point of 86 to 87 °C.

For the compound `O=C(O)/C=C/c1oc(-c2ccccc2)nc1-c1ccc(Cl)cc1`, the melting point fell in the range of 255 to 257 °C.

In turn, `CCN1C=C(N=[N+]=[N-])N=C(C2CC2)c2ccccc21` registered a melting point of 158 to 160 °C.

For the compound `CCCCSc1ccccc1C(=O)O`, the melting point lay in the range of 96 to 101 °C.

In the case of `COC(=O)CCCc1cc2nc(Cl)ccc2n1S(=O)(=O)c1cccc(Br)c1`, the melting point is 109 °C.

`COc1cc(S(C)=O)c(C)cc1O` (centres undefined) displayed a melting point of 165 to 166 °C.

The compound `N#CCCOc1cccc(O)c1C=O` yielded a melting point of 84 to 86 °C.

Compound `CNC(=O)N1CC(Oc2ccc(Br)cc2)C1` had a melting point of 135 to 137 °C.

Consider `CC(C)(Oc1ccc(CC(=O)Nc2ccc(C(F)(F)F)cc2)cc1)C(=O)O`, for which the melting point is 197 °C.

Take `N#CN1CCN(c2nn(-c3ccccc3)c3ccccc23)CC1`: the melting point was 118 to 120 °C.

Turning to `CS(=O)(=O)c1ccc(-c2c(-c3ccccc3F)[nH]c3ccc(Cl)cc23)cc1`, the melting point was 246 to 248 °C.

In turn, `CCOc1ccc2c(c1)C(N)(c1ccccc1Cl)C(=O)N2Cc1ccc(C(=O)NC(C)(C)CN(CC)CC)cc1` (centres undefined) showed a melting point of 59 °C.

For the compound `Cc1cc(C(C)(C)c2ccc(O)cc2)ccc1O`, the melting point is 112 to 113 °C.

`Cc1nnc(C(=O)CCCCCCOc2ccc(O)cc2)o1` registered a melting point of 134 to 135 °C.

`CON=C1CN(c2cc3c(cc2F)c(=O)c(C(=O)O)cn3C2CC2)CC12CN(C(=O)OC(C)(C)C)C2` came in with a melting point of 255 to 256 °C.

Turning to `CCc1ccc2[nH]c(SCC(F)(F)F)nc2c1`, the melting point is 127 to 129 °C.

On to `CCc1ccc2c(c1)C=Cc1cc(C)ccc1C2c1cn(Cc2ccc(C(=O)O)o2)c(=O)[nH]c1=S` (centres undefined), for which the melting point was determined as 165 °C.

On to `COC(=O)c1ccc(NS(C)(=O)=O)c(C=O)c1`, for which the melting point lay within 161 to 163 °C.

Compound `Cc1ccc(S(=O)(=O)NC(Cc2ccccc2)C(=O)Nc2c(F)cc(F)cc2F)cc1` (centres undefined) yielded a melting point of 180 to 181 °C.

`O=C1NC(=O)c2c1c(-c1ccccc1)cc1c2c2cc(O)ccc2n1CCCN1CCNCC1`: the melting point fell in the range of 178 to 183 °C.

Compound `CCCc1nc2c(N)nc3cc(-c4ccccc4)ccc3c2n1CC(C)(C)NS(C)(=O)=O` showed a melting point of 135 to 141 °C.

Compound `CN1CCCC1Cc1ccc(N)cc1` (centres undefined) came in with a melting point of 59 to 61 °C.

`CCOc1ccc(C=CC(=O)OC)cc1` yielded a melting point of 68 to 70 °C.

Regarding `N#CSc1ccc(F)c(C#N)c1`, the melting point is 39 to 41 °C.

`CC(C#N)(Cc1c[nH]cn1)c1ccccc1` (centres undefined) displayed a melting point of 187 to 189 °C.

For the compound `COC(=O)Nc1cn2c(S(=O)c3ccccc3)cccc2n1` (centres undefined), the melting point lay within 249 to 251 °C.

Regarding `CC(=O)Nc1nc(S(=O)(=O)Cl)n[nH]1`, the melting point is 177 °C.

The compound `CC(C)n1c(CC[C@@H]2C[C@H](CC(=O)OC(C)(C)C)OC(C)(C)O2)c(-c2ccc(F)cc2)c(-c2ccccc2)c1C(N)=O` had a melting point of 201 to 202 °C.

Compound `COC(=O)C1(C(N)=O)C(C(N)=O)=NC(c2ccccc2)=C1N` (centres undefined) came in with a melting point of 177 to 179 °C.

Compound `CNN(NC)C(=O)Nc1cccc2c1C(=O)c1c-2n[nH]c1-c1ccsc1` registered a melting point of 202 °C.

Compound `CN1CCc2c(cccc2NC(=O)c2ccccc2[N+](=O)[O-])C1` registered a melting point of 196 to 198 °C.

Consider `CCOC(=O)C1=C(Nc2ccccc2)CN(C(=O)c2ccccc2)C1`, for which the melting point was in the range of 149 to 151 °C.

In turn, `CCO/N=C(/C(=O)OCC)c1ccc(OCCOc2ccc3ccccc3c2)s1` displayed a melting point of 102 to 104 °C.

In turn, `Nc1c(C(F)(F)F)cnn1-c1c(Cl)cc(C(F)(F)F)cc1Cl` gave a melting point of 106 °C.

`Nc1nc2ccccc2c2c1ncn2CCOCC#Cc1ccc(Oc2ccccc2)cc1` returned a melting point of 146 to 148 °C.

`Cc1nccc2[nH]c(=O)c(C(=O)NN)cc12`: the melting point was more than 310 °C.

For `O=C(c1nc2ccc(O)cc2[nH]1)N1CCC(=Cc2ccc(Cl)cc2)CC1`, the melting point was 88 to 89 °C.

`COC(=O)c1cccc(OC)c1OS(=O)(=O)NC(=O)Nc1nc(C)cc(Cl)n1` came in with a melting point of 140 to 143 °C.

For `O=C(Oc1cc2c(c3ccccc13)Nc1ccccc1S2)c1ccccc1`, the melting point came out at 171 °C.

In the case of `CSC(Nc1cc(C(F)(F)F)cc(C(F)(F)F)c1)=C(C#N)S(=O)(=O)C(C)C`, the melting point lay in the range of 130 to 133 °C.

Compound `Cc1ccc(OC2CCC3C4CC=C5CC(O[Si](C)(C)C(C)(C)C)CCC5(C)C4CCC23C)cc1` (centres undefined) returned a melting point of 137 to 138 °C.

For the compound `COc1ccc(CC[C@H](N)C(=O)O)cc1F`, the melting point lay within 164 to 167 °C.

As to `CCN1C(=O)C(C(=O)Nc2ccc(F)cc2F)c2cc(C(C)=O)ccc21` (centres undefined), the melting point is 160 to 161 °C.

In turn, `O=C1CC(=O)C2CCC1C2` came in with a melting point of 129 to 130 °C.

As for `O=c1[nH]cc(-c2ccnc(Cl)c2)n1-c1ccc(F)cc1`, the melting point turned out to be 270 °C.

The compound `Cc1c(C)c2c(c(C)c1N)C(C)C(C)(N1CCN(C)CC1)O2` (centres undefined) gave a melting point of 76 to 77 °C.

Compound `COCCOC(=O)NNC(=O)OCCOC` showed a melting point of 71.3 to 76.5 °C.

For the compound `COc1cc(N)c2nccc(C)c2c1Oc1ccc(Cl)cc1Cl`, the melting point lay in the range of 115 to 118 °C.

On to `CCOC(=O)c1cnc2c(c1Cl)CN(C(=O)OCC)CC2`, for which the melting point fell in the range of 231 to 233 °C.

`O=C(O)CN1C(=O)[C@@H](NC(CCc2ccccc2)C(=O)O)CSC1c1ccccc1` (some centres undefined) registered a melting point of 132 to 138 °C.

For the compound `CC(C)Oc1ccc(OCc2ccccc2)cc1-c1nc2ccc(CO)nc2[nH]1`, the melting point is 167 to 168 °C.

Turning to `CCCCCCCCCOc1ccccc1/C=C/C(C)=C/C=C/C(C)=C\C(=O)O`, the melting point was in the range of 135 to 136 °C.

Regarding `CSc1ccc(CCCOCCCCCCNCC(O)c2ccc(O)c(F)c2)cc1` (centres undefined), the melting point was 66 to 67 °C.

Compound `COc1ccccc1C1(O)C(O)CC(c2ccccc2)(c2ccccc2)C2CN(C(=O)Cc3c[nH]c4ccc(O)cc34)CC21` (mixture of isomers) returned a melting point of 230 to 235 °C.

`COc1ccc2c(c1)C(=O)C(=O)C1=C2OC2(CCN(CC(O)COc3ccc(F)cc3)CC2)CS1` (centres undefined) came in with a melting point of 189 to 191 °C.

Take `COC(=O)/C=C/Cn1c(=O)c2cc(C(=O)NCc3ccc(OC)cc3)sc2n(C)c1=O`: the melting point was in the range of 169 to 171 °C.

As for `O=C1C2CCN(CC2)C1Cc1cccnc1` (centres undefined), the melting point was found to be 95 °C.

As to `CCCCN1C(=O)c2cncnc2N(C(=O)CN2CCN(C)CC2)c2ccccc21`, the melting point fell in the range of 153 to 154 °C.

`C[C@]12CCC(=O)N[C@@H]1CCc1cc(Sc3ccccn3)ccc12`: the melting point lay in the range of 223 to 225 °C.

For the compound `O=c1c2cc(F)c(Cl)nc2n(-c2ccc(F)cc2F)c(=O)n1OCc1ccccc1`, the melting point is 215 to 216 °C.

The compound `CCOP(=O)(/C=C/c1cn(-c2ccccc2)nc1OCc1ccc(OCc2nc(-c3ccc(CC(=O)O)cc3)oc2C)c(OC)c1)OCC` gave a melting point of 119 to 120 °C.

On to `O=C(O)CNC(=O)Cc1ccccc1S`, for which the melting point lay in the range of 91 to 93 °C.

`CCc1cc(OCc2ccc(-c3ccccc3-c3nnn(C(c4ccccc4)(c4ccccc4)c4ccccc4)n3)cc2)c2c(n1)COCC2` registered a melting point of 168 to 170 °C.

`COc1cc(C(=O)O)ccc1Cc1cn(C(C)C(=O)N(C)C)c2ccc(C(=O)NCC3CCCC3)cc12` (centres undefined) had a melting point of 146 to 147 °C.

Regarding `CCCCN1CCCN(c2ccccc2)c2cc(Cl)ccc21`, the melting point lay in the range of 159 to 161 °C.

As for `COC(=O)CCCCCSC1=CCCC1=O`, the melting point lay in the range of 45 to 46.5 °C.

`O=C1CCC(c2nc(-c3ccccc3)c(-c3ccccc3)o2)N1` (centres undefined): the melting point was 145 to 147 °C.

Regarding `O=C(O)CP(=O)(c1ccccc1)c1ccccc1`, the melting point lay in the range of 143 to 146 °C.

Turning to `CCOC(=O)Nc1ccc2ccccc2c1`, the melting point was 69 to 70.5 °C.

For `CCc1nc2c(N)nc3cc(CCC(=O)N4CCOCC4)ccc3c2n1CC(C)(C)O`, the melting point was in the range of 237 to 239 °C.

`COc1ccc(C2Sc3c(ccc4ccccc34)N(CCN(C)C)C(=O)C2OC)cc1` (centres undefined) returned a melting point of 118 to 120 °C.

The compound `CC(=O)Nc1ccccc1C#Cc1c(F)c(F)nc(F)c1F` had a melting point of 204 to 205 °C.

For `O=S(=O)(Nc1ccc2c(OCc3ccc(-c4ccc(F)cc4)cc3)cccc2c1)C(F)(F)F`, the melting point lay in the range of 139 to 140 °C.

In turn, `Cn1cc(-c2ncc(OC3SCC(O)C(O)C3O)cc2F)cn1` (centres undefined) displayed a melting point of 206 °C.

`CCn1ncc2c1ncc1c(=O)n3nc(C)cc3n(C)c12` showed a melting point of 306 to 307 °C.

As to `O=C(Nc1ccc(Sc2c(O)c3c(Cl)cc(Cl)cc3[nH]c2=O)cc1)c1cccnc1`, the melting point is more than 300 °C.

`COC(=O)c1ccc(Br)cc1Cl` registered a melting point of 28 to 30 °C.

For the compound `CC(C)(C)C(=O)N[C@@H](CS)C(=O)O`, the melting point came to 140 °C.

For the origin of these results see a melting point compilation (Tetko et al.; mined from patent text by program, amines drawn as free bases though some values may be those of a salt).
